Reference: the supplement of paper PMC10627819

Tests used:
Assay in all cases: fitness (endpoint OD595 vs no drug) (fraction); higher = more growth
S. aureus DSM 20231 = tested on: S. aureus DSM 20231
In short: (§1)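 With the first reading as background, OD595 was measured every 30 min for 14 h in 384-well plates kept at 37 °C and inoculated at OD595 0.01. TSB, LB Lennox or CY was the medium. Fitness is the optical density at the transition into stationary phase divided by the robust mean of no-drug control wells, with a cap of 1.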

S. aureus Newman = tested on: S. aureus Newman
In short: as §1

S. pneumoniae D39V = tested on: S. pneumoniae D39V
In short: as §1
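Further: OD595 on entry to stationary phase over no-drug wells; at most 1.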

CC1(C)S[C@@H]2[C@H](NC(=O)[C@H](N)c3ccc(O)cc3)C(=O)N2[C@H]1C(=O)O [Amoxicillin] + CO[C@@]12[C@H](COC(N)=O)C3=C(C(=O)C(C)=C(N)C3=O)N1C[C@@H]1N[C@@H]12 [Mitomycin C]
Details	fitness
S. aureus DSM 20231, first compound 0.0625 µg/mL, partner 0.0156 µg/mL	0.522
S. aureus DSM 20231, first compound 0.0625 µg/mL, partner 0.0312 µg/mL	0.467
S. aureus DSM 20231, first compound 0.0625 µg/mL, partner 0.0625 µg/mL	0.31
S. aureus DSM 20231, first compound 0.125 µg/mL, partner 0.0156 µg/mL	0.359
S. aureus DSM 20231, first compound 0.125 µg/mL, partner 0.0312 µg/mL	0.226
S. aureus DSM 20231, first compound 0.125 µg/mL, partner 0.0625 µg/mL	0.0925
S. aureus DSM 20231, first compound 0.25 µg/mL, partner 0.0156 µg/mL	0.0215
S. aureus DSM 20231, first compound 0.25 µg/mL, partner 0.0312 µg/mL	0.0317
S. aureus DSM 20231, first compound 0.25 µg/mL, partner 0.0625 µg/mL	0.0251
S. aureus DSM 20231, first compound 0.5 µg/mL, partner 0.0156 µg/mL	0.0035
S. aureus DSM 20231, first compound 0.5 µg/mL, partner 0.0312 µg/mL	0.0009
S. aureus DSM 20231, first compound 0.5 µg/mL, partner 0.0625 µg/mL	0.0008
S. aureus Newman, first compound 0.0625 µg/mL, partner 0.0156 µg/mL	0.67
S. aureus Newman, first compound 0.0625 µg/mL, partner 0.0312 µg/mL	0.646
S. aureus Newman, first compound 0.0625 µg/mL, partner 0.0625 µg/mL	0.502
S. aureus Newman, first compound 0.125 µg/mL, partner 0.0156 µg/mL	0.714
S. aureus Newman, first compound 0.125 µg/mL, partner 0.0312 µg/mL	0.649
S. aureus Newman, first compound 0.125 µg/mL, partner 0.0625 µg/mL	0.465
S. aureus Newman, first compound 0.25 µg/mL, partner 0.0312 µg/mL	0.627
S. pneumoniae D39V, first compound 0.0008 µg/mL, partner 0.001075 µg/mL	≥ 1
S. pneumoniae D39V, first compound 0.0008 µg/mL, partner 0.00215 µg/mL	0.895
S. pneumoniae D39V, first compound 0.0008 µg/mL, partner 0.0043 µg/mL	0.799
S. pneumoniae D39V, first compound 0.0015 µg/mL, partner 0.001075 µg/mL	0.994
S. pneumoniae D39V, first compound 0.0015 µg/mL, partner 0.002 µg/mL	0.778
S. pneumoniae D39V, first compound 0.0015 µg/mL, partner 0.00215 µg/mL	0.876
S. pneumoniae D39V, first compound 0.0015 µg/mL, partner 0.004 µg/mL	0.836
S. pneumoniae D39V, first compound 0.0015 µg/mL, partner 0.0043 µg/mL	0.816
S. pneumoniae D39V, first compound 0.0015 µg/mL, partner 0.008 µg/mL	0.674
S. pneumoniae D39V, first compound 0.003 µg/mL, partner 0.001075 µg/mL	0.938
S. pneumoniae D39V, first compound 0.003 µg/mL, partner 0.002 µg/mL	0.702
S. pneumoniae D39V, first compound 0.003 µg/mL, partner 0.00215 µg/mL	0.832
S. pneumoniae D39V, first compound 0.003 µg/mL, partner 0.004 µg/mL	0.728
S. pneumoniae D39V, first compound 0.003 µg/mL, partner 0.0043 µg/mL	0.761
S. pneumoniae D39V, first compound 0.003 µg/mL, partner 0.008 µg/mL	0.617

fitness, S. pneumoniae D39V, one replicate
Details	partner 0.002 µg/mL	partner 0.004 µg/mL	partner 0.008 µg/mL
first compound 0.0008 µg/mL	0.785	0.79	0.739
first compound 0.006 µg/mL	0.269	0.349	0.17

CCCCCCCCCC(=O)N[C@@H](Cc1c[nH]c2ccccc12)C(=O)N[C@H](CC(N)=O)C(=O)N[C@@H](CC(=O)O)C(=O)N[C@@H]1C(=O)NCC(=O)N[C@@H](CCCN)C(=O)N[C@@H](CC(=O)O)C(=O)N[C@H](C)C(=O)N[C@@H](CC(=O)O)C(=O)NCC(=O)N[C@H](CO)C(=O)N[C@@H]([C@H](C)CC(=O)O)C(=O)N[C@@H](CC(=O)c2ccccc2N)C(=O)O[C@@H]1C [Daptomycin] + CO[C@@]12[C@H](COC(N)=O)C3=C(C(=O)C(C)=C(N)C3=O)N1C[C@@H]1N[C@@H]12 [Mitomycin C]
fitness
Details	first compound 0.125 µg/mL	first compound 0.25 µg/mL	first compound 0.5 µg/mL	first compound 1 µg/mL	first compound 2 µg/mL	first compound 4 µg/mL
S. aureus DSM 20231, partner 0.0156 µg/mL	–	–	0.773	0.809	0.769	–
S. aureus DSM 20231, partner 0.0312 µg/mL	–	–	0.791	0.778	0.744	–
S. aureus DSM 20231, partner 0.0625 µg/mL	–	–	0.648	0.6	0.595	–
S. aureus Newman, partner 0.0156 µg/mL	0.775	0.778	0.773	–	–	–
S. aureus Newman, partner 0.0312 µg/mL	0.702	0.692	0.688	–	–	–
S. aureus Newman, partner 0.0625 µg/mL	0.57	0.54	0.545	–	–	–
S. pneumoniae D39V, partner 0.001075 µg/mL	–	–	–	0.897	0.905	0.94
S. pneumoniae D39V, partner 0.002 µg/mL	–	–	–	0.771	0.776	0.739
S. pneumoniae D39V, partner 0.00215 µg/mL	–	–	–	0.849	0.841	0.842
S. pneumoniae D39V, partner 0.004 µg/mL	–	–	–	0.617	0.558	0.504
S. pneumoniae D39V, partner 0.0043 µg/mL	–	–	–	0.719	0.723	0.723
S. pneumoniae D39V, partner 0.008 µg/mL	–	–	–	0.285	0.307	0.242

CCCCCCCCCC(=O)N[C@@H](Cc1c[nH]c2ccccc12)C(=O)N[C@H](CC(N)=O)C(=O)N[C@@H](CC(=O)O)C(=O)N[C@@H]1C(=O)NCC(=O)N[C@@H](CCCN)C(=O)N[C@@H](CC(=O)O)C(=O)N[C@H](C)C(=O)N[C@@H](CC(=O)O)C(=O)NCC(=O)N[C@H](CO)C(=O)N[C@@H]([C@H](C)CC(=O)O)C(=O)N[C@@H](CC(=O)c2ccccc2N)C(=O)O[C@@H]1C [Daptomycin] + CC1(C)S[C@@H]2[C@H](NC(=O)Cc3ccccc3)C(=O)N2[C@H]1C(=O)O [Penicillin G]
fitness, S. aureus Newman
Details	first compound 0.125 µg/mL	first compound 0.25 µg/mL	first compound 0.5 µg/mL
partner 0.0195 µg/mL	0.926	0.958	0.925
partner 0.039 µg/mL	0.939	0.942	0.972
partner 0.078 µg/mL	0.961	0.957	0.915

CCCCCCCCCC(=O)N[C@@H](Cc1c[nH]c2ccccc12)C(=O)N[C@H](CC(N)=O)C(=O)N[C@@H](CC(=O)O)C(=O)N[C@@H]1C(=O)NCC(=O)N[C@@H](CCCN)C(=O)N[C@@H](CC(=O)O)C(=O)N[C@H](C)C(=O)N[C@@H](CC(=O)O)C(=O)NCC(=O)N[C@H](CO)C(=O)N[C@@H]([C@H](C)CC(=O)O)C(=O)N[C@@H](CC(=O)c2ccccc2N)C(=O)O[C@@H]1C [Daptomycin] + CO/N=C(\C(=O)N[C@@H]1C(=O)N2C(C(=O)[O-])=C(C[N+]3(C)CCCC3)CS[C@H]12)c1csc(N)n1 [Cefepime]
fitness
Details	first compound 0.125 µg/mL	first compound 0.25 µg/mL	first compound 0.5 µg/mL	first compound 1 µg/mL	first compound 2 µg/mL	first compound 4 µg/mL
S. aureus DSM 20231, partner 0.125 µg/mL	–	–	0.846	0.938	0.934	–
S. aureus DSM 20231, partner 0.25 µg/mL	–	–	0.88	0.89	0.887	–
S. aureus DSM 20231, partner 0.5 µg/mL	–	–	0.869	0.877	0.844	–
S. aureus Newman, partner 0.125 µg/mL	0.935	0.941	0.967	–	–	–
S. aureus Newman, partner 0.25 µg/mL	0.854	0.874	0.874	–	–	–
S. aureus Newman, partner 0.5 µg/mL	0.8	0.797	0.799	–	–	–
S. pneumoniae D39V, partner 0.007 µg/mL	–	–	–	0.917	0.942	0.476
S. pneumoniae D39V, partner 0.0078 µg/mL	–	–	–	≥ 1	≥ 1	0.964
S. pneumoniae D39V, partner 0.014 µg/mL	–	–	–	0.887	0.938	0.57
S. pneumoniae D39V, partner 0.0155 µg/mL	–	–	–	0.982	≥ 1	0.965
S. pneumoniae D39V, partner 0.028 µg/mL	–	–	–	0.813	0.82	0.48
S. pneumoniae D39V, partner 0.031 µg/mL	–	–	–	0.584	0.606	0.599
